Drawing on patent US11578084B2, “Condensed ring compounds having dopamine D3 receptor antagonistic effect” (Shionogi & Co., Ltd., priority 2018, dated 2023), this text covers Ki for 37 compounds.

The target in test [1] is human recombinant dopamine D2 receptor (Homo sapiens (Human), UniProt P14416). Put plainly: Test of binding inhibition for dopamine D2 receptor ([3H]-Methylspiperone SPA). As to conditions: Jump-In HEK cell membranes, 1.2 nM [3H]-Methylspiperone, 120 min at 25° C.; read-out: hD2_Ki. As for the experimental part:
(§1) (Experimental Conditions)
Cell membranes: Jump-In HEK cell membranes expressing human recombinant dopamine D2 receptor (2 μg/well)
(§2) Non-specific ligand: (final concentration) 10 μM Butaclamol [(+)-Butaclamol Hydrochloride, D033, Sigma]
(§3) SPA beads solution: SPA beads [WGA PVT SPA Scintillation Beads, RPNQ0001 (500 mg), RPNQ0060 (2 g), PerkinElmer] (0.2 mg/well)
(§4) Incubation time and temperature: 120 min at 25° C.
(§5) Butaclamol or the compounds of the present invention were weighed and DMSO was added to make a 10 mM solution. This solution was diluted to each concentration.
(§6) SPA beads were weighed and stirred in water to make a 50 mg/mL solution. Using this solution, a mixture with the cell membranes was prepared.
Jump-In HEK Cell membranes (final reaction amount: 2 μg protein/well), the SPA beads solution (final reaction amount: 0.2 mg/well) and the buffer solution were mixed, and the mixed solution was left still for 1 hour or more at 4° C. Then, 50 μL of the mixture was added to each well of the plate. […] Non-specific binding was calculated based on the radioactivity of [^3H]-Methylspiperone in the presence of 10 μM non-labeled Butaclamol. The total binding was calculated using the radioactivity of [^3H]-Methylspiperone in the absence of the compounds of the present invention (Vehicle). The Ki values were calculated from dose-response curves.
(§7) Binding activities of the compounds of the present invention were calculated from the following Binding Inhibition Rate (%): Inhibition Rate (%)=[1−(c−a)/(b−a)]×100 • a: Average cpm of non-specific binding • b: Average cpm of total binding • c: Cpm in the presence of each test compound

In test [2] the target is human recombinant dopamine D3 receptor (Homo sapiens (Human), UniProt P35462). Put plainly: Test of binding inhibition for dopamine D3 receptor ([3H]-Methylspiperone SPA). As to conditions: Jump-In HEK cell membranes, 2 nM [3H]-Methylspiperone, 120 min at 25° C.; read-out: hD3_Ki. How it is done:
as §1
Cell membranes: Jump-In HEK cell membranes expressing human recombinant dopamine D3 receptor (4 μg/well)
as §2, §3, §4, §5
[^3H]-Methylspiperone was weighed and the buffer solution was added to make a 6 nM solution.
as §6
Jump-In HEK Cell membranes (final reaction amount: 4 μg protein/well), the SPA beads solution (final reaction amount: 0.2 mg/well) and the buffer solution were mixed and the mixed solution was left still for 1 hour or more at 4° C. Then, 50 μL of the mixture was added to each well of the plate. In addition, 25 μL of 6 nM [^3H]-Methylspiperone (final concentration: 2 nM) was added to each well. […] Non-specific binding was calculated based on the radioactivity of [^3H]-Methylspiperone in the presence of 10 μM non-labeled Butaclamol. The total binding was calculated using the radioactivity of [H]-Methylspiperone in the absence of the compounds of the present invention (vehicle). The Ki values were calculated from dose-response curves.
as §7

Chain of human recombinant dopamine D3 receptor (P35462 whole entry): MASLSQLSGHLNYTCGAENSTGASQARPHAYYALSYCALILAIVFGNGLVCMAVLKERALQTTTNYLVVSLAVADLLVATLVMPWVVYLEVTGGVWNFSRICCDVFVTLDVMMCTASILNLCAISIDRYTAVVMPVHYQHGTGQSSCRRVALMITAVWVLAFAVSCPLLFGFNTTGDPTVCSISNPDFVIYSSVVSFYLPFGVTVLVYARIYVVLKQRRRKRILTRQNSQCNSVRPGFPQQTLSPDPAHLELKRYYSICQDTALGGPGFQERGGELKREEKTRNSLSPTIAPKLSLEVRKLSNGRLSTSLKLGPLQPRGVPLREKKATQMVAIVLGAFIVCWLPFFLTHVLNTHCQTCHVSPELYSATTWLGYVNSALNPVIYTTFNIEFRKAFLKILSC
Chain of human recombinant dopamine D2 receptor (P14416 whole entry): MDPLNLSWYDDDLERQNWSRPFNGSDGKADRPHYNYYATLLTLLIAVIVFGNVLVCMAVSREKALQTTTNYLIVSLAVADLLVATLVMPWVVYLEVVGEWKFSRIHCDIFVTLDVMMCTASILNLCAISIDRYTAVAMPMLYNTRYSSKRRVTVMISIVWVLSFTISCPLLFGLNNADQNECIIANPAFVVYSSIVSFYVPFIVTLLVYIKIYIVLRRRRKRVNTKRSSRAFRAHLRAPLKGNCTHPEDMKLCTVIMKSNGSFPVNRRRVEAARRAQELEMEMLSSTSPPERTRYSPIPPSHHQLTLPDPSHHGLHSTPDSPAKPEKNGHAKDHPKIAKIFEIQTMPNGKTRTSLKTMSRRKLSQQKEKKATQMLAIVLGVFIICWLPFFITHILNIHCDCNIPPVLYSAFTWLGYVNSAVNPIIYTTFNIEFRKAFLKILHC

On to `CC(Oc1ccc2c(n1)CCN(CC[C@H]1CC[C@H](NC(=O)c3cccc4nn(C)cc34)CC1)CC2)C(F)F` (single isomer, unassigned) [Example I-123], for which the Ki in test [1] amounted to 200 nM; in test [2], 0.034 nM.
The like results for `CC(Oc1ccc2c(n1)CCN(CC[C@H]1CC[C@H](NC(=O)c3cccc4nn(C)cc34)CC1)CC2)C(F)F` (single isomer, unassigned) [Example I-124] were, in that order, 180 nM and 0.072 nM.
In the same order, the values of `Cc1ncc(CC(=O)NC2CC3CCC(C2)N3CCN2CCc3sc(OCC(F)(F)F)nc3C2)s1` (single isomer, unassigned) [Example I-134] are 300 nM and 0.17 nM.
The like results for `Cn1cc2ccc(C(=O)N[C@H]3CC[C@H](CCN4CCc5nc(OCC(C)(F)F)sc5CC4)CC3)cc2n1` [Example I-050] were, in that order, more than 1800 nM and 0.16 nM.
Consider `CC(F)(F)COc1nc2c(s1)CCN(CC[C@H]1CC[C@H](NC(=O)c3cnn4ccccc34)CC1)CC2` [Example I-051], for which the Ki was determined as 1100 nM in test [1] and 0.43 nM in test [2].
On to `Cc1cc(CC(=O)N[C@H]2CC[C@H](CCN3CCc4nc(OCC(C)(F)F)sc4CC3)CC2)on1` [Example I-052], for which the Ki in test [1] turned out to be 1700 nM; in test [2], 0.083 nM.
In the same order, the values of `Cc1cc(OCC(=O)N[C@H]2CC[C@H](CCN3CCc4nc(OCC(C)(F)F)sc4CC3)CC2)no1` [Example I-053] are 630 nM and 0.2 nM.
In the same order, the values of `Cn1nnc2cccc(C(=O)N[C@H]3CC[C@H](CCN4CCc5nc(OCC(C)(F)F)sc5CC4)CC3)c21` [Example I-054] are 270 nM and 0.13 nM.
The like results for `Cn1ccc2c(C(=O)N[C@H]3CC[C@H](CCN4CCc5nc(OCC(C)(F)F)sc5CC4)CC3)cccc2c1=O` [Example I-055] were, in that order, more than 1800 nM and 0.19 nM.
On to `Cn1cc2c(C(=O)N[C@H]3CC[C@H](CCN4CCc5ccc(OC6CCC(F)(F)C6)nc5CC4)CC3)cccc2n1` (stereo partly shown) [Example I-057], for which the Ki is 770 nM in test [1] and 0.18 nM in test [2].
In the case of `Cc1cc2c(C(=O)N[C@H]3CC[C@](F)(CCN4CCc5nc(OCC(F)F)sc5CC4)CC3)cccn2n1` [Example I-058], the Ki was more than 1700 nM in test [1] and 0.47 nM in test [2].
`Cc1ncc(/C=C/C(=O)N[C@H]2CC[C@](F)(CCN3CCc4nc(OCC(F)F)sc4CC3)CC2)cn1` [Example I-061]: the Ki in test [1] is more than 1800 nM; in test [2] it was 0.65 nM.
With `CC(C)Oc1ccc2c(n1)CCN(CC[C@H]1CC[C@H](NC(=O)c3cnn4ccccc34)CC1)CC2` [Example I-062], the Ki in test [1] came out at 1100 nM; in test [2], 1 nM.
In the same order, the values of `CC(C)Oc1ccc2c(n1)CCN(CC[C@H]1CC[C@H](NC(=O)c3cccc4c(=O)n(C)ccc34)CC1)CC2` [Example I-063] are 1700 nM and 0.62 nM.
In the same order, the values of `Cc1ncc(CC(=O)N[C@H]2CC[C@H](CCN3CCc4nc(OCC(C)(F)F)sc4CC3)OC2)s1` [Example I-064] are 950 nM and 0.3 nM.
The like results for `Cc1c(F)cccc1C(=O)N[C@H]1CC[C@H](CCN2CCc3nc(OCC(C)(F)F)sc3CC2)OC1` [Example I-065] were, in that order, 340 nM and 0.26 nM.
Turning to `Cn1ncc2ccc(C(=O)N[C@H]3CC[C@H](CCN4CCc5nc(OCC(C)(F)F)sc5CC4)OC3)cc21` [Example I-067], the Ki in test [1] was found to be 370 nM; in test [2], 0.16 nM.
In the same order, the values of `Cc1ncc(OCC(=O)N[C@H]2CC[C@H](CCN3CCc4nc(OCC(C)(F)F)sc4CC3)OC2)cn1` [Example I-068] are 870 nM and 0.47 nM.
In the same order, the values of `Cc1nc(CC(=O)N[C@H]2CC[C@H](CCN3CCc4sc(C5CC(F)(F)C5)nc4C3)CC2)no1` [Example I-070] are 780 nM and 0.17 nM.
For `CN1Cc2c(C(=O)N[C@H]3CC[C@](F)(CCN4CCc5nc(OCC(F)F)sc5CC4)CC3)cccc2C1=O` [Example I-072], the Ki in test [1] was more than 1700 nM; in test [2] it was 0.13 nM.
The like results for `Cc1nc(CC(=O)N[C@H]2CC[C@](F)(CCN3CCc4ccc(OCC(C)(F)F)nc4CC3)CC2)no1` [Example I-078] were, in that order, more than 1800 nM and 0.13 nM.
In the same order, the values of `Cc1cc(OCC(=O)N[C@H]2CC[C@](F)(CCN3CCc4ccc(OCC(C)(F)F)nc4CC3)CC2)no1` [Example I-079] are more than 1800 nM and 0.07 nM.
Turning to `Cc1cc(OCC(=O)N[C@H]2CC[C@](F)(CCN3CCc4ccc(OCC(F)F)nc4CC3)CC2)no1` [Example I-084], the Ki in test [1] was more than 2200 nM; in test [2], 0.25 nM.
The like results for `COc1cc(CC(=O)N[C@H]2CC[C@](F)(CCN3CCc4ccc(OCC(F)F)nc4CC3)CC2)on1` [Example I-085] were, in that order, more than 2200 nM and 0.044 nM.
The like results for `Cc1cnc(CC(=O)N[C@H]2CC[C@](F)(CCN3CCc4ccc(OCC(F)F)nc4CC3)CC2)o1` [Example I-086] were, in that order, more than 2200 nM and 0.52 nM.
Turning to `Cn1cc2c(C(=O)N[C@H]3CC[C@H](CCN4CCc5ccc(OC6CCC6)nc5CC4)CC3)cccc2n1` [Example I-089], the Ki in test [1] was more than 2200 nM; in test [2], 0.22 nM.
Regarding `Cc1cnc(CC(=O)N[C@H]2CC[C@H](CCN3CCc4ccc(OC5CCC5)nc4CC3)CC2)o1` [Example I-090], the results for the Ki in test [1] and in test [2] were more than 2400 nM and 0.65 nM, respectively.
In the same order, the values of `Cc1ncccc1C(=O)N[C@H]1CC[C@H](CCN2CCc3ccc(OCC(F)F)nc3CC2)CC1` [Example I-091] are 940 nM and 0.28 nM.
In the same order, the values of `CCn1c(C(=O)N[C@H]2CC[C@H](CCN3CCc4ccc(OCC(F)F)nc4CC3)CC2)cccc1=O` [Example I-092] are 310 nM and 0.16 nM.
In the same order, the values of `Cc1nnc(CC(=O)N[C@H]2CC[C@H](CCN3CCc4ccc(OCC(F)F)nc4CC3)CC2)o1` [Example I-093] are 1200 nM and 0.17 nM.
Turning to `Cc1cc(CC(=O)N[C@H]2CC[C@H](CCN3CCc4ccc(OCC(F)F)nc4CC3)CC2)no1` [Example I-094], the Ki in test [1] was 910 nM; in test [2], 0.3 nM.
In the same order, the values of `Cn1cc(CC(=O)N[C@H]2CC[C@H](CCN3CCc4ccc(OCC(F)F)nc4CC3)CC2)cn1` [Example I-095] are 1400 nM and 0.18 nM.
The like results for `Cn1cc(OCC(=O)N[C@H]2CC[C@H](CCN3CCc4ccc(OCC(F)F)nc4CC3)CC2)cn1` [Example I-096] were, in that order, 570 nM and 0.18 nM.
In the same order, the values of `Cc1ncc(OCC(=O)N[C@H]2CC[C@H](CCN3CCc4ccc(OCC(F)F)nc4CC3)CC2)cn1` [Example I-097] are 900 nM and 0.11 nM.
On to `Cc1ncc(/C=C/C(=O)N[C@H]2CC[C@H](CCN3CCc4ccc(OCC(F)F)nc4CC3)CC2)cn1` [Example I-098], for which the Ki in test [1] was found to be 350 nM; in test [2] it was 0.17 nM.
With `Cn1ncc(CC(=O)N[C@H]2CC[C@](F)(CCN3CCc4ccc(OC5CCC5)nc4CC3)CC2)n1` [Example I-106], the Ki in test [1] was more than 2300 nM; in test [2] it was 0.54 nM.
Consider `Cn1cc(OCC(=O)N[C@H]2CC[C@H](CCN3CCc4ccc(CCC(F)(F)F)nc4CC3)CC2)cn1` [I′-6], for which, in test [2], the Ki was 0.33 nM.
